Source: patent US20250057822A1, “PSYCHO[…] TREATING HEARING-RELATED DISORDERS” (THE REGENTS OF THE UNIVERSITY OF CALIFORNIA, priority 2021, published 2025)

How the values were obtained:
[1] = system: C57/B6 female mice; assay: Auditory brainstem response (ABR) assay, wave I amplitude; assay type: in vivo; settings: 1 mg/kg, 24 h post-treatment vs baseline (5-6 days pre-treatment), p<0.01, n=3
Protocol: The ABR amplitudes were analyzed at baseline (5-6 days pre-treatment) and 24 h post-treatment of vehicle (FIG. 2A and FIG. 2B) or 1 mg/kg of the psychoplastogen psilocin (FIG. 2C and FIG. 2D) at 8 and 16 kHz. Data are presented as mean±SEM. […] N=3 8-week old C57/B6 female mice per condition.
Auditory brainstem responses (ABRs) were recorded at baseline (5-6 days prior to treatment) and 24 h post treatment with psilocin (1 mg/kg). Mice were anesthetized via i.p. injections of ketamine (90 mg/kg) and xylazine (20 mg/kg). Subcutaneous electrodes were placed behind the right pinna (inverting) and vertex (active). A ground electrode was placed in the left leg of the mouse. Stimuli were 5-ms tone pips (2 ms cos2 rise-fall) delivered at 21/s with alternating stimulus polarity. Recorded electrical responses were filtered (300 Hz to 3 kHz) and averaged using BioSig software (TDT). The sound intensity level was decreased in 5 dB increments from 90 dB SPL-20 dB SPL. At each sound level 512 responses were averaged.
Wave I amplitudes were measured from the estimated baseline prior to the response to the peak of wave I in μV. ABR wave I amplitudes were analyzed at baseline (5-6 days pre-treatment) and 24 h post-treatment of psilocin (1 mg/kg). Data analyses and statistics were performed using Prism version 9.4 (GraphPad) and presented as mean±SEM. […]

[2] = system: inner hair cell ribbon synapses (organ of Corti); assay: Inner hair cell ribbon synapse density 24 h after psilocin treatment; assay type: in vivo, mice; settings: 1 mg/kg, 24 h after treatment, mean±SEM
Protocol: C57/B6 female mice, aged 8-weeks-old were treated with psilocin (1 mg/kg) (n=3) and Vehicle (0.9% saline) (n=2). […] Synapse density increase was not significant in the 8 kHz region (Vehicle: 16.50±3.826, psilocin: 17.79±3.826, P=0.5554). For each animal, 17-22 inner hair cells were quantified per frequency (8 kHz and 16 kHz regions of the organ of Corti). Data are presented as mean±SEM.*p<0.05.
8-week old C57/B6 mice were injected with 1 mg/kg psilocin or vehicle control (0).9% saline). 24 h later, mice were euthanized then inner ear tissues were collected for immunofluorescence. Isolated cochlea were punched into oval and round windows using a syringe needle and rinsed/fixed with 4% paraformaldehyde in 1×cold PBS. Then, cochlea were further fixed in 4% paraformaldehyde in 1×cold PBS for additional 2 hours at 4C0. Following fixation, samples were rinsed 3×20 min in PBS and dissected under a stereomicroscope to the three turns: apical, middle and basal. Tissues were permeabilized in PBS+0.25% Triton X-100 solution for 10 min at room temperature on a rocking platform; blocked with 10% goat serum and 25 mM glycine for 1 h at RT. […]

SMILES: CN(C)CCc1c[nH]c2cccc(O)c12 [psilocin]
- ABR wave I amplitude, change from baseline ([1]; 8 kHz): significantly increased
- ABR wave I amplitude, change from baseline ([1]; 16 kHz): significantly increased
- inner hair cell ribbon synapse density ([2]; 8 kHz region, not significant vs vehicle 16.50±3.826, P=0.5554): 17.79±3.826
- inner hair cell ribbon synapse density ([2]; 16 kHz region, significant vs vehicle 16±3.826, P=0.0169): 23.27±3.826
